Laboratory results reported in patent US12104173B2, “Method for differentiation of human pluripotent stem cell lines in suspension culture” (AGENCY FOR SCIENCE, TECHNOLOGY AND RESEARCH, priority 2018, dated 2024).

Tests used:
Assay type in all cases: cell-based, human
[1] = system: O-neg hiPSC line (D5) expanded in agitated microcarrier cultures; assay: DoE multifactorial analysis of KDR+ cells, O-neg hiPSC; settings: CHIR exposure for 24 hours, 4 days post differentiation
From the text: (B) Plot of KDR levels (%) for respective conditions tested (day 4 post differentiation). Conditions 27, 28 and 29 are triplicates of the same condition tested. […] Act=Activin A; CHI=CHIR-99021 for 24 hr, CH2=CHIR-99021 from 24-48 hr; BMP=BMP4. Computed P-values are indicated below the chart.
These findings were also confirmed using an O-neg hiPSC line (D5) expanded in agitated microcarrier cultures (FIG. 6). […] In summary, from the Design of experiment analysis, it was established that a BMP4 dose of 10 to 50 ng/ml, Activin A dose of 25 to 50 ng/ml and exposure of CHIR for 24 hours at a dose of 6 to 12 μM would be efficient for the generation of KDR+ cells.
Design of experiments (DoE) using a resolution IV Fractional Factorial Design was performed using the MODDE software (Sartorius Stedim Biotech, Germany) to evaluate initial BMP4, Activin A and CHIR-99021, doses and duration of exposure for their effects on the following response factors: induction of KDR+ cells 4 days post mesoderm induction or total hematopoietic precursors generated 2 weeks post differentiation. […]

[2] = system: hES-3 microcarrier aggregates; assay: capillary Western blot of Wnt/β-catenin signalling proteins; settings: hES-3-MC; upon induction with CHIR (15 μM CHIR, 30 ng/ml BMP4, 40 ng/ml Activin A)
Method: Day 7 hES-3-MC aggregates from static or agitation conditions were subjected to differentiation using BMP4 protocol (50 ng/ml BMP4) or optimized CHIR-based protocol (30 ng/ml BMP4, 40 ng/ml Activin A and 15 μM CHIR). Cell lysates before start of differentiation (0 hours) and 24 hours after onset of differentiation were analysed for proteins involved in Wnt/β-catenin signalling (T-BRA, TCF-1 and LEF-1) and BMP4 signalling (SMAD7, SMAD1 and phospho SMAD1/5) using an automated Capillary Western Blot system (Peggy Sue). All samples including GAPDH as a protein loading control were run in parallel. (A) is an image showing digitalized chemiluminescence signals represented as band intensities. Corresponding molecular weight of detected proteins are indicated. […] Graphical representation of chemiluminescence intensity of proteins (expressed as a percentage of GAPDH expression) involved in (B) Wnt/β-catenin signalling and (C) BMP4 signalling. […]
Capillary Western blot was performed using a fully automated system, Peggy Sue (Proteinsimple, R&D, USA). Proteins were separated, detected and quantified according to manufacturer's protocol (www.proteinsimple.com) based on size separation (12-230 kDa). […] (all from Cell Signaling Technology)[1:50 diluted SMAD7 (Sigma-Aldrich)] followed by horseradish peroxidase conjugated secondary antibody and detected with Luminol/Peroxidase substrate. […]

[3] = system: BR7 O-neg hiPSC line; assay: CHIR dose: hematopoietic/erythroid differentiation of agitated hPSC-MC aggregates; settings: optimal dose of CHIR-99021, day 4
[4] = system: X13 O-neg hiPSC line; assay: as above; settings: optimal dose of CHIR-99021, day 4

Structure (SMILES): Cc1c[nH]c(-c2cnc(NCCNc3ccc(C#N)cn3)nc2-c2ccc(Cl)cc2Cl)n1 [CHIR-99021, 6-[[2-[[4-(2,4-Dichlorophenyl)-5-(5-methyl-1H-imidazol-2-yl)-2-pyrimidinyl]amino]ethyl]amino]-3-pyridinecarbonitrile]
- effect of factor on KDR+ cells (DoE) [1]: significant factors for increased KDR+ cells
- Wnt/β-catenin signalling proteins TCF-1, LEF-1 and T-BRA [2]: detected as early as 24 hours
- Mesoderm induction % KDR+ PDGFRα− [3]: 18.6%
- Mesoderm induction % KDR+ PDGFRα− [4]: 40.8%
